Laboratory results reported in US7632829B2, “Diazepan derivatives” (Hoffmann-La Roche Inc., priority 2006, dated 2009).
pIC50: −log10 of the molar value.

Target: T1, human chemokine receptor 2 isoform B (Homo sapiens, UniProt P41597)
T1 construct: host or cells: CHOK1-CCR2B-A5 (CHO-K1)
T1 sequence (P41597 1-360 isoform P41597-2): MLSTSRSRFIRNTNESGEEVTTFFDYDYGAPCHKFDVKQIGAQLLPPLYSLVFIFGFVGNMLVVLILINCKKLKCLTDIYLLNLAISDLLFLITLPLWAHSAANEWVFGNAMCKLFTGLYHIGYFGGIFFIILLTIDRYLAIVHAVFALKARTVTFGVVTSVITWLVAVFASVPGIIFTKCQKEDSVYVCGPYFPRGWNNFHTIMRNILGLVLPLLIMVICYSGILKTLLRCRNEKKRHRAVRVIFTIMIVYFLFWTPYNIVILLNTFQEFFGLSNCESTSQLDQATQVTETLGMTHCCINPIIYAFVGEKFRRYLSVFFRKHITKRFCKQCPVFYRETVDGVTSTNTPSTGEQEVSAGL
Experiment: Calcium mobilization assay (FLIPR, CHOK1-CCR2B-A5 cells, 20 nM MCP-1)
Type: cell-based
Settings: Ca mobilisation assay, CCR2, antagonist activity vs 20 nM MCP-1
Procedure, shortened: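 FLIPR Fluo-4 calcium readout in CHO-K1 cells stably overexpressing human CCR2B; compounds first monitored 80 s for agonist activity, then after 20-30 min at 30 °C challenged with 20 nM MCP-1. Response is max minus basal fluorescence; antagonist value is concentration giving 50% inhibition of specific calcium increase.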

| SMILES | pIC50 |
| --- | --- |
| O=C(/C=C/c1ccc(Cl)c(Cl)c1)N1CCC(=O)N(CCCN2CCC(O)(c3ccncc3)CC2)CC1 [Example 53, 1-[(E)-3-(3,4-Dichloro-phenyl)-acryloyl]-4-[3-(4-hydroxy-3,4,5,6-tetrahydro-2H-[4,4′]bipyridinyl-1-yl)-propyl]-[1,4]diazepan-5-one] | 6.36 |
| O=C(/C=C/c1ccc(Cl)c(Cl)c1)N1CCC(=O)N(CCCN2CCC(N3CCNC3=O)CC2)CC1 [Example 56, 1-[(E)-3-(3,4-Dichloro-phenyl)-acryloyl]-4-{3-[4-(2-oxo-imidazolidin-1-yl)-piperidin-1-yl]-propyl}-[1,4]diazepan-5-one] | 5.97 |
| O=C(/C=C/c1ccc(Cl)c(Cl)c1)N1CCC(=O)N(CCCN2CCC(c3cc[nH]n3)CC2)CC1 [Example 57, 1-[(E)-3-(3,4-Dichloro-phenyl)-acryloyl]-4-{3-[4-(1H-pyrazol-3-yl)-piperidin-1-yl]-propyl}-[1,4]diazepan-5-one] | 6.66 |
| Cc1nc(C2CCN(CCCN3CCN(C(=O)/C=C/c4ccc(Cl)c(Cl)c4)CCC3=O)CC2)n[nH]1 [Example 58, 1-[(E)-3-(3,4-Dichloro-phenyl)-acryloyl]-4-{3-[4-(5-methyl-1H-[1,2,4]triazol-3-yl)-piperidin-1-yl]-propyl}-[1,4]diazepan-5-one] | 6.26 |
| O=C(/C=C/c1ccc(Cl)c(Cl)c1)N1CCC(=O)N(CCCNC2CCOCC2)CC1 [Example 63, 1-[(E)-3-(3,4-Dichloro-phenyl)-acryloyl]-4-[3-(tetrahydro-pyran-4-ylamino)-propyl]-[1,4]diazepan-5-one] | 6.30 |
| O=C(/C=C/c1ccc(Cl)c(Cl)c1)N1CCC(=O)N(CCCN2CCC(C(F)(F)F)CC2)CC1 [Example 72, 1-[(E)-3-(3,4-Dichloro-phenyl)-acryloyl]-4-[3-(4-trifluoromethyl-piperidin-1-yl)-propyl]-[1,4]diazepan-5-one] | 6.51 |
| CN(CCCN1CCN(C(=O)/C=C/c2ccc(Cl)c(Cl)c2)CCC1=O)C1CCOCC1 [Example 78, 1-[(E)-3-(3,4-Dichloro-phenyl)-acryloyl]-4-{3-[methyl-(tetrahydro-pyran-4-yl)-amino]-propyl}-[1,4]diazepan-5-one] | 6.35 |

Stronger by pIC50, values ahead:

| pIC50 | SMILES |
| --- | --- |
| 7.01 | O=C(/C=C/c1ccc(Cl)c(Cl)c1)N1CCC(=O)N(CCCN2CCC(F)(F)CC2)CC1 [Example 55, 1-[(E)-3-(3,4-Dichloro-phenyl)-acryloyl]-4-[3-(4,4-difluoro-piperidin-1-yl)-propyl]-[1,4]diazepan-5-one] |
| 7.64 | N#CC1(c2ccccc2)CCN(CCCN2CCN(C(=O)/C=C/c3ccc(Cl)c(Cl)c3)CCC2=O)CC1 [Example 60, 1-(-3-{4-[(E)-3-(3,4-Dichloro-phenyl)-acryloyl]-7-oxo-[1,4]diazepan-1-yl}-propyl)-4-phenyl-piperidine-4-carbonitrile] |
| 6.71 | O=C(C=Cc1ccc(Cl)c(Cl)c1)N1CCC(=O)N(CCCNC2CCC(O)(c3ccccn3)CC2)CC1 (stereo not drawn) [Example 65, trans-1-[(E)-3-(3,4-Dichloro-phenyl)-acryloyl]-4-[3-(4-hydroxy-4-pyridin-2-yl-cyclohexylamino)-propyl]-[1,4]diazepan-5-one] |
| 6.73 | O=C(/C=C/c1ccc(Cl)c(Cl)c1)N1CCC(=O)N(CCCN2CCC(O)(c3ccccn3)CC2)CC1 [Example 69, 1-[(E)-3-(3,4-Dichloro-phenyl)-acryloyl]-4-[3-(4′-hydroxy-3′,4′,5′,6′-tetrahydro-2′H-[2,4′]bipyridinyl-1′-yl)-propyl]-[1,4]diazepan-5-one] |
| 6.84 | O=C(/C=C/c1ccc(Cl)c(Cl)c1)N1CCC(=O)N(CCCN2CCC(O)(c3cccnc3)CC2)CC1 [Example 70, 1-[(E)-3-(3,4-Dichloro-phenyl)-acryloyl]-4-[3-(4′-hydroxy-3′,4′,5′,6′-tetrahydro-2′H-[3,4′]bipyridinyl-1′-yl)-propyl]-[1,4]diazepan-5-one] |
| 6.76 | O=C(/C=C/c1ccc(Cl)c(Cl)c1)N1CCC(=O)N(CCCN2CCC(F)CC2)CC1 [Example 74, 1-[(E)-3-(3,4-Dichloro-phenyl)-acryloyl]-4-[3-(4-fluoro-piperidin-1-yl)-propyl]-[1,4]diazepan-5-one] |
